Key:
[1] = test system: phospho-MEK in A375 cells; assay: pMEK/tMEK ratio in A375 melanoma model; assay type: cell-based; details: A375 (BRAF p.V600E); 100 nM
Method: Compound (drug) treatment: Cells were plated in a 6-well plate at a density of 250,000-300,000 cells/well in 3 mL media and incubated 37° C. in a humidified, 5% CO2 incubator. […] These solutions were added to the cells (3 uL/well), mixed by swirling the plate, and incubated at 37° C. in a humidified, 5% CO2 incubator for 2 hours.
Cell lysis and protein estimation: Cells were washed with PBS, and scraped in 50 μL of lysis buffer containing protease and phosphatase inhibitors. Cell lysates were stored at −20° C. Cell lysates were thawed and spun at 12,000 rpm for one minute, 3 ul of the supernatant was added to 500 μL of Coomassie blue reagent following by 500 μL of water. […] Protein standards were used (0-20 mg/mL) to calculate protein concentrations of test samples.
All samples were heated at 95° C. for 5 minutes, cooled to room temperature and spun down. […] After the run, gel was removed and protein transfer was done using iBlot for 7 minutes, as per manufacturer's recommendations. After the transfer, nitrocellulose membrane was incubated on a shaker in 5 mL of blocking buffer at room temperature for 1 hr. The blot was then incubated overnight on a shaker in 5 ml of blocking buffer containing 0.2% Tween-20 and primary antibody, at room temperature. Anti-phospho-STAT3 antibody was used at a dilution of 1:500, the other 3 primary antibodies were used at a dilution of 1:1000.
Next day, the blot was washed 3 times for 10 min each with 10 mL of TBST followed by incubation on a shaker in 5 ml of blocking buffer containing 0.2% Tween-20 and 0.5 ul of the IRDye labeled secondary antibodies, diluted 1:10000, at room temperature for 1 hr. The blot was then washed 3 times for 10 min each with 10 mL of TBST and dried between sheets of paper towels. Imaging was done using LICOR's Odyssey imaging system, quantitation was done using their software, Image Studio version 3.1.
The nine models are described in Table 16.

[2] = PubChem Compound Summary; cited from earlier work

Row | SMILES | pMEK/tMEK ratio normalized to DMSO [1] | human plasma drug half-life [2]
1 | CNS(=O)(=O)Nc1cccc(Cc2c(CN(C)C)c3ccc(OC(=O)N(C)C)cc3oc2=O)c1Cl [Compound 274, 3-(2-chloro-3-((N-methylsulfamoyl)amino)benzyl)-4-((dimethylamino)methyl)-2-oxo-2H-chromen-7-yl dimethylcarbamate] | 0.585 | 
2 | Cn1cnc2c(F)c(Nc3ccc(Br)cc3Cl)c(C(=O)NOCCO)cc21 [Reference-1, Selumetinib] | 0.962 | ≥ 6.2 h
